Structures can show the parent of a compound that is named as a salt. Where two headings read alike, the source gives them in different places.
Columns and labels:
[1] = target: HDAC6 human recombinant enzyme (Homo sapiens (Human), UniProt Q9UBN7); test: Histone Deacetylase Assay (BPS Biosciences), HDAC6; format: biochemical
Excerpt: Histone Deacetylase Assay (BPS Biosciences)
Histone deacetylase assay was done as per manufacturer's instructions.

[2] = human, microsomes, 0.5 h, pH 7.4
Description: (§4) The microsomal suspension was prepared by adding liver microsomes to 100 mM potassium phosphate buffer (pH7.4) to give a final protein concentration of 0.5 mg/mL. The stock solution of NCE (10 mM in DMSO) was added to the microsomes to provide a final concentration of 1 μM. […] Samples were vortexed and centrifuged at 5,000 rpm for 10 min to remove proteins. Supernatant were analyzed on LC-MS/MS.

LSD1 = LSD1 (Homo sapiens (Human), UniProt O60341); test: TR-FRET Assay for LSD1; conditions: read-out: LSD1 IC50
Description: TR-FRET Assay for LSD1 (Perkin Elmer)
Tranylcypromine (TCP), LSD1 inhibitor was procured from Selleckchem. […] Stop Solution containing 300 μM tranylcypromine in 1× LANCE Detection Buffer was added to the wells and incubated for 5 min at RT. Then, Detection mix containing 2 nM Eu-Ab and 50 nM ULight-Streptavidin in 1× LANCE Detection Buffer was prepared and added to the reaction mix. This mixture was incubated for 1 hour at room temperature.

MM1S = test: Anticancer activity: Alamar Blue assay, MM1S; format: cell-based; conditions: Homo sapiens, MM1.S, read-out: MM1S EC50
[3] = mouse, microsomes, 0.5 h, pH 7.4
Description: as §4

[4] = Metabolic stability in liver microsomes, HLM; conditions: 1 μM, NADPH
Description: as §4

CCRF-CEM = test: cells; conditions: Homo sapiens, 144 h, read-out: Anticancer profileration EC50 CCRF-CEM
Description: (§1) Anticancer Activity: Alamar Blue Assay
(§2) Cells were seeded at 5000 cells/per well in 96-well tissue culture plate and incubated at 37° C./5% CO2. After 16-24 hours, fresh media was added to the wells. Compounds were then (1% DMSO conc.) added to the cells at 10 concentrations ranging from 10-0.0005 uM prepared in 3-fold serial dilutions. Cells were incubated for 68-72 h at 37° C./5% CO2. Alamar Blue™ reagent was added and incubated for 1-3 hours at 37° C./5% CO2. Plates were read on fluorescence reader at 540 nm excitation, 590 nm emission wave lengths.
(§3) As described above, compounds were tested for anticancer activities in different tumor cell lines and GI50 were determined.

[5] = Metabolic stability in liver microsomes, MLM; conditions: 1 μM, NADPH
Description: as §4

A375 = test: cells; conditions: Homo sapiens, A-375, 144 h, read-out: Anticancer profileration EC50 A375
Description: as §1
as §2, with “Cells were incubated for 68-72 h at 37° C./5% CO2.” left out
as §3

HEL-92.1.7 = test: cells; conditions: Homo sapiens, HEL 92.1.7, 144 h, read-out: Anticancer profileration EC50 HEL-92.1.7
Description: as §1
as §2, with “Cells were incubated for 68-72 h at 37° C./5% CO2.” left out
as §3

MV-4-11 = test: cells; conditions: Homo sapiens, MV4-11, 144 h, read-out: Anticancer profileration EC50 MV-4-11
Description: as §1
as §2, with “Cells were incubated for 68-72 h at 37° C./5% CO2.” left out
as §3

OCI-AML3 = test: cells; conditions: Homo sapiens, OCI-AML-3, 144 h, read-out: Anticancer profileration EC50 OCI-AML3
Description: as §1
as §2, with “Cells were incubated for 68-72 h at 37° C./5% CO2.” left out
as §3

MDAMB231 = test: cells; conditions: Homo sapiens, MDA-MB-231, 144 h, read-out: Anticancer profileration EC50 MDAMB231
Description: as §1
as §2, with “Cells were incubated for 68-72 h at 37° C./5% CO2.” left out
as §3

HDAC6 human recombinant enzyme, sequence (Q9UBN7 whole entry): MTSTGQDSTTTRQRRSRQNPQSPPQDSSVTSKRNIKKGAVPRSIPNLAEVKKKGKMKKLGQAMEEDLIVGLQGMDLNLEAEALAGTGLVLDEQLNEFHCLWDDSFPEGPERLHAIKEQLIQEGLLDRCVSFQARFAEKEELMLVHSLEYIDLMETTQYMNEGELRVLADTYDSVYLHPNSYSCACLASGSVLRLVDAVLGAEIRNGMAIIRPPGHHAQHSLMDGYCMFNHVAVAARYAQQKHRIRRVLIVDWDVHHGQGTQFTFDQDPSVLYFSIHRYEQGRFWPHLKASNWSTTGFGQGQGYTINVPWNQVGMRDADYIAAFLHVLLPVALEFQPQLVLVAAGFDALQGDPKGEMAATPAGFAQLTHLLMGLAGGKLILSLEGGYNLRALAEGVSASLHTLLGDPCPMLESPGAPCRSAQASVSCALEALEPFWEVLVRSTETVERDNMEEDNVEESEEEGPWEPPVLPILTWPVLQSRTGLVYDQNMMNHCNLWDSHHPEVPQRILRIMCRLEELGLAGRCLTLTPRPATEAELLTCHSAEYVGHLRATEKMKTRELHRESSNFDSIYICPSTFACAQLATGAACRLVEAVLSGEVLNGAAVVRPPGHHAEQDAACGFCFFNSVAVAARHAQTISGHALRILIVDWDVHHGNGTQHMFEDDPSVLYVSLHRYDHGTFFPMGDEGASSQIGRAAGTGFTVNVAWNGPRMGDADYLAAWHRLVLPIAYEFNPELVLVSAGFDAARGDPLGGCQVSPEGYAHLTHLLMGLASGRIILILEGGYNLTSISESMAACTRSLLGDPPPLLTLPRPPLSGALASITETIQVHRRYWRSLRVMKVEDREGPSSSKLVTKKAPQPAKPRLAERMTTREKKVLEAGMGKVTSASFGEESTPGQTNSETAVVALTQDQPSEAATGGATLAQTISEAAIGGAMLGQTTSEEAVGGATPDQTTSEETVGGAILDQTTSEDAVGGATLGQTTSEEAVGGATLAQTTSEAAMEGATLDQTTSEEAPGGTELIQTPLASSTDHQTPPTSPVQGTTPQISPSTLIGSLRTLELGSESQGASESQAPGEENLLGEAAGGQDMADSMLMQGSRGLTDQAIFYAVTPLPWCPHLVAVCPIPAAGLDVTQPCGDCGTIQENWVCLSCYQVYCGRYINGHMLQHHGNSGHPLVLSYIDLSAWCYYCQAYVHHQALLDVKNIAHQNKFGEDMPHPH

O=C(NO)c1ccc(CCCN2CC3(CC(NC4CC4c4ccccc4)C3)C2)cc1 (stereo not drawn) [Example 46, N-hydroxy-4-(3-(6-((2-phenylcyclopropyl)amino)-2-azaspiro[3.3]heptan-2-1)propyl)benzamide TFA Salt]
IC50 [1]: 477 nM | Metabolic stability HLM % remaining in 30 min [2]: 54/47% | IC50 (LSD1): 26 nM | EC50 (MM1S; MM1S cells): 71 nM | Metabolic stability MLM % remaining in 30 min [3]: 54/47%

O=C(NO)c1ccc(CCCN2CCC(CNC3CC3c3ccc(OCc4ccc(F)cc4)cc3)CC2)cc1 (stereo not drawn) [Example 52, 4-(3-(4-(((2-(4-((4-fluorobenzyl)oxy)phenyl)cyclopropyl)amino)methyl)piperidin-1-yl)propyl)-N-hydroxybenzamide TFA Salt]
IC50 [1]: 12 nM | IC50 (LSD1): 4 nM | Metabolic stability HLM % remaining in 30 min [4]: 79% | EC50 (CCRF-CEM): 371 nM | Metabolic stability MLM % remaining in 30 min [5]: 56% | EC50 (A375): 1700 nM | EC50 (HEL-92.1.7): 5 nM | EC50 (MV-4-11): 1 nM | EC50 (OCI-AML3): 22 nM | EC50 (MDAMB231): 891 nM

O=C(/C=C/c1ccc(CNC2CC2c2ccc(-c3ccc(Cl)cc3)cc2)cc1)NO (stereo not drawn) [Example 5, (E)-3-(4-(((2-(4′-chloro-[1,1′-biphenyl]-4-yl)cyclopropyl)amino)methyl)phenyl)-N-hydroxyacrylamide TFA Salt]
IC50 (LSD1): 49 nM | Metabolic stability HLM % remaining in 30 min [4]: 86% | EC50 (MM1S): 88 nM | EC50 (CCRF-CEM): 533 nM | Metabolic stability MLM % remaining in 30 min [5]: 59% | EC50 (A375): 2300 nM | EC50 (HEL-92.1.7): 26 nM | EC50 (MV-4-11): 54 nM | EC50 (OCI-AML3): 146 nM | EC50 (MDAMB231): 1600 nM

O=C(NO)c1cnc(N2CCC(CNC3CC3c3ccc(F)cc3)CC2)nc1 (stereo not drawn) [Example 8, 2-(4-(((2-(4-fluorophenyl)cyclopropyl)amino)methyl)piperidin-1-yl)-N-hydroxypyrimidine-5-carboxamide TFA Salt]
IC50 [1]: 88 nM | Metabolic stability HLM % remaining in 30 min [4]: 88% | EC50 (MM1S): 7 nM | EC50 (CCRF-CEM): 119 nM | Metabolic stability MLM % remaining in 30 min [5]: 52% | EC50 (A375): 698 nM | EC50 (HEL-92.1.7): 42 nM | EC50 (MV-4-11): 48 nM | EC50 (OCI-AML3): 46 nM | EC50 (MDAMB231): 193 nM

O=C(NO)c1ccc(CCCN2CCC(CNC3CC3c3ccc(F)cc3)CC2)cc1 (stereo not drawn) [Example 47, 4-[3-(4-{[2-(4-Fluoro-phenyl)-cyclopropylamino]-methyl}-piperidin-1-yl)-propyl]-N-hydroxy-benzamide TFA Salt]
IC50 [1]: 51 nM | IC50 (LSD1): 6 nM | Metabolic stability HLM % remaining in 30 min [4]: 54% | EC50 (CCRF-CEM): 1400 nM | Metabolic stability MLM % remaining in 30 min [5]: 66% | EC50 (A375): 3600 nM | EC50 (HEL-92.1.7): 5 nM | EC50 (MV-4-11): 5 nM | EC50 (OCI-AML3): 146 nM | EC50 (MDAMB231): 875 nM
